Key:
Jurkat cells [1] = experiment: Flow cytometry of cell surface labeling after click with biotin azide probe 6 and fluorescein-conjugated streptavidin; format: cell-based, human
Procedure: In another exemplary implementation, a method for labeling fucosylated glycoconjugates at the cell surface is disclosed. In one aspect, Jurkat cells are grown in the presence of derivatized alkynyl Fuc 1. After treatment, cells are subjected to CuAAC (click chemistry) to couple biotinylated azido probe 6 with any alkynyl Fuc-bearing glycoconjugates, and stained with fluorescein-conjugated streptavidin.
Labeling alkynyl Fuc-bearing cell surface glycoconjugates is illustrated in FIGS. 1A, 1B, 1C and 1D. FIGS. 1A, 1B, 1C and 1D show analysis of cells tagged with Fuc analogs analyzed by monitoring fluorescence intensity with flow cytometry after labeling with a biotin azide probe 6 and staining cells with fluorescein-conjugated streptavidin. […] Without being bound by theory, incorporation of the derivatized Fuc analogs into fucosylated glycoconjugates likely occurs via the Fuc salvage pathway.
It is now disclosed in one exemplary implementation of the disclosure that treating cells with derivatized alkynyl ManNAc 4 results in derivatized alkyne-bearing sialyl glycoconjugates. In one aspect of the method, cells are treated with 4 at various concentrations for one to 3 days. Modified sugar analogs and probes used in this disclosure are shown in Scheme 1. Tagging of the cell surface glycoconjugates by derivatized alkynyl ManNAc is illustrated in FIGS. 2A, 2B, 2C and 2D. FIGS. 2A, 2B, 2C and 2D show analysis of cells labeled with ManNAc analogs analyzed by monitoring fluorescence intensity with flow cytometry after clicking on the biotin azide probe 6 and staining cells with fluorescein-conjugated streptavidin. […] Compared with the MFI of controls, there was significant labeling on cells treated with derivatized alkynyl ManNAc 4, even at concentrations as low as 3 micromolar (15-fold increase). […] The optimal concentration of 4 for tagging sialyl glycoconjugates falls between 25 and 50 micromolar.
(§1) Jurkat cells were cultivated (2×10^6/10 ml) in RPMI medium 1640 supplemented with 10% FCS and various concentrations of peracetylated alkynyl sugars 1, 2, or 4 or native sugars 3 or 5, for 1-3 days at 37° C. Cells were then harvested, washed with 0.1% FCS/PBS, and resuspended (10^6 cells) in 100 microliters of click reaction solution (0.1 mM biotin probe 6 or fluorogenic probe 7/0.1 mM Tris-thiazoleamine catalyst/0.1 mM CuSO4/0.5 mM sodium ascorbate, in PBS). The reaction was incubated at room temperature for 30 min, and then the cells were washed twice with 0.1% FCS/PBS. Cells treated with biotin probe 6 were subsequently stained with fluorescein-conjugated streptavidin (0.5 microgram per sample in 50 microliters of 1% FCS/PBS) for 30 min at 4° C., and washed three times with 1% FCS/PBS. Data were acquired by BD LSR II with FACSDiva software, and were analyzed by CellQuestPro software (BD Biosciences). Detection of fluorescent adduct with probe 7 was monitored with a 408 nm laser and a 440/40 bandpass filter for excitation and emission, respectively.

Jurkat cells [2] = experiment: Flow cytometry of cell surface labeling with fluorogenic coumarin probe 7; format: cell-based, human; settings: 200 micromolar Fuc analogs or 25 micromolar ManNAc analogs, 3 days
Description: FIGS. 3A and 3B show tagging of cell surface glycans by derivatized alkynyl sugar analogs and subsequent labeling with probe 3-azido-7-hydroxycoumarin 7. Shown is flow cytometry analysis of Jurkat cells tagged with 200 micromolar derivatized alkynyl Fuc 1 shown in FIG. 3A or 25 micromolar alkynyl-derivatized ManNAc 4 shown in FIG. 3B for 3 days. The fluorescence intensity was detected after labeling with a coumarin probe 7. Filled histogram, cells treated with control sugar analog 3 or 5; open histogram, cell treated with alkynyl-derivatized sugar 1 or 4.
Recently, another click-activated azido-derivatized fluorescent probe, based on coumarin, was reported in the literature. In one aspect of the disclosure, the fluorogenic probe, 3-azido-7-hydroxycoumarin 7, is used as the coupling partner for alkynyl tags on labeled glycoconjugates.
Jurkat cells were cultivated (2×10^6/10 ml) in RPMI medium 1640 supplemented with 10% FCS and various concentrations of peracetylated alkynyl sugars 1, 2, or 4 or native sugars 3 or 5, for 1-3 days at 37° C. […] Data were acquired by BD LSR II with FACSDiva software, and were analyzed by CellQuestPro software (BD Biosciences). Detection of fluorescent adduct with probe 7 was monitored with a 408 nm laser and a 440/40 bandpass filter for excitation and emission, respectively.

Jurkat cells [3] = experiment: Cell growth analysis after treatment with sugar analogs (cell numbers counted); format: cell-based, human; settings: for toxicity (growth rate): 3 days
Procedure: FIGS. 1A, 1B, 1C and 1D show analysis of cells labeled with Fuc analogs. […] Jurkat cells were grown in the presence of 200 micromolar each Fuc analog for 3 days before cell numbers were counted. The data represent the percentage of treated cells vs. untreated cells (n=4).
It is also disclosed how treatment with exogenous Fuc analog affects cell growth rate. […] In contrast, the addition of 200 micromolar azido Fuc 2 inhibits cell growth considerably, by 65% when compared with the untreated cells. […] Such toxicity may lead to global change in expression, therefore a nontoxic probe is preferable for accurate probing of glycoconjugate expression.
as §1

cell extracts = experiment: Labeling and detection of glycoconjugates in cell extracts (SDS/PAGE, Western blot); format: cell-based; settings: 200 micromolar Fuc or 25 micromolar ManNAc analogs, 3 days
Description: Because the herein disclosed labeling system enables the identification of cellular glycoconjugates, it can also serve well in glyco-proteomic applications aimed at discovering unknown glycosylated targets for diagnostic and therapeutic purposes. […] Soluble lysate fractions are labeled with biotin probe 6, fluorogenic probe 7, or a standard azido-derivatized rhodamine probe used in proteomics before separating proteins by SDS/PAGE. […] Positive fluorescent signal was also detected in alkynyl positive protein lysate when labeled with fluorogenic 3-azido-7-hydroxycoumarin 7 and rhodamine probes (FIG. 6B and FIG. 11). […] Moreover, further processing, including a streptavidin/avidin enrichment or gel slice purification, will allow for comparative identification by proteomic mass spectrometry techniques of unknown glycoconjugates expressed at different cell status, for instance, un-differentiated verses differentiated cells, or normal verses cancer cells.
Cells were seeded at 3×10^6/8 ml per 10-cm dish and treated with control and test sugars (200 micromolar Fuc 3 vs. alkynyl derivatized Fuc 1, or 25 micromolar ManNAc 5 vs. alkynyl derivatized ManNAc 2) in growth medium at 37° C. […] Signal was developed with SuperSignal Chemiluminescent Substrate and detected by exposure to x-ray film. […] Rhodamine gels were analyzed.

## C#CCCC(=O)N[C@@H]1C(OC(C)=O)O[C@H](COC(C)=O)[C@@H](OC(C)=O)[C@@H]1OC(C)=O (some centres unmarked) [alkynyl ManNAc 4, 1,3,4,6-tetra-O-acetyl-N-4-pentynoylmannosamine]
Jurkat cells [1]; 3 micromolar
  increase of MFI compared with controls: 15 fold
Jurkat cells [1]; 3 days
  dose dependency of glycan tagging: Dose-dependent labeling
Jurkat cells [1]; biotin probe 6/fluorescein-streptavidin
  fluorescence intensity / cell surface signal compared with control sugar-treated cells: specific signal on the cell surface
Jurkat cells [2]
  fluorescent labeling after reacting with 3-azido-7-hydroxycoumarin probe: significant fluorescent labeling
Jurkat cells [3]; above 100 micromolar
  toxicity (growth rate): more toxic
Jurkat cells [3]; at levels required for efficient labeling
  toxicity to cells (summary statement): not toxic
Jurkat cells [3]; between 25 and 50 micromolar
  toxicity (growth rate): little or no toxicity
Cell extracts
  labeling signal in proteins by Western blot or fluorescence: specific biotin-labeling signals

Reference: patent publication US10317393B2, “Alkynyl sugar analogs for labeling and visualization of glycoconjugates in cells” (Academia Sinica, priority 2007, dated 2019)
